Source: patent US7291621B2, “Substituted biaryl amides C5a receptor modulators” (Neurogen Corporation, priority 2002, dated 2007)
Where two headings read alike, the source gives them in different places.

Biological target: T1, C5a receptor (Homo sapiens, UniProt P21730)
T1 construct: endogenous in cells; host or cells: U937 cells differentiated with 1 mM dibutyryl cAMP
T1 sequence (P21730 1-350): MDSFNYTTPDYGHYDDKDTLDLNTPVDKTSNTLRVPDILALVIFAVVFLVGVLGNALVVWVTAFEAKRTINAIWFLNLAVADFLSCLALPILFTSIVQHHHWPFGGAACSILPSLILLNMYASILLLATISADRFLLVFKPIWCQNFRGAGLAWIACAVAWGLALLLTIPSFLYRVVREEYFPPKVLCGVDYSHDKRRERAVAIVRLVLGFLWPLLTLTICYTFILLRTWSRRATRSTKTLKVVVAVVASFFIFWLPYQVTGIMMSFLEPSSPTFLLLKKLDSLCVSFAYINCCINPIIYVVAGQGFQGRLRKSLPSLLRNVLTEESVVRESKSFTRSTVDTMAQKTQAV
Assay: standard assay of C5a receptor mediated calcium mobilization
Assay type: cell-based
Details: asterisk = tested in C5a receptor mediated calcium mobilization assay, read-out: Ca2+ Mob.
Protocol: U937 cells are grown in differentiation media (1 mM dibutyrl cAMP in RPMI 1640 medium containing 10% fetal bovine serum) for 48 hrs at 37° C. then reseeded onto 96-well plates suitable for use in a FLIPR™ Plate Reader (Molecular Devices Corp., Sunnyvale Calif.). Cells are grown an additional 24 hours (to 70-90% confluence) before the assay. The cells are then washed once with Krebs Ringer solution. FLUO-3 calcium sensitive dye (Molecular Probes, Inc. Eugene, Oreg.) is added to 10 μg/mL and incubated with the cells at room temperature for 1 to 2 hours. The 96 well plates are then washed to remove excess dye. Fluorescence responses, measured by excitation at 480 nm and emission at 530 nm, are monitored upon the addition of human C5a to the cells to a final concentration of 0.01-30.0 nM, using the FLIPR™ device (Molecular Devices).
The calcium mobilization assay described above may be readily adapted for identifying test compounds that have agonist or antagonist activity at the human C5a receptor.
For example, in order to identify antagonist compounds, differentiated U937 cells are washed and incubated with Fluo-3 dye as described above. One hour prior to measuring the fluorescence signal, a subset of the cells is incubated with 1 μM of at least one compound to be tested. The fluorescence response upon the subsequent addition of 0.3 nM (final concentration) human recombinant C5a is monitored using the FLIPR™ plate reader. Antagonist compounds elicit at least a 2-fold decrease in the fluorescence response relative to that measured in the presence of human C5a alone. Preferred antagonist compounds elicit at least a 5-fold, preferably at least a 10-fold, and more preferably at least a 20-fold decrease in the fluorescence response relative to that measured in the presence of human C5a alone.

Structure (SMILES)	Ki (Table III) [nM]	Ki (Table I) [nM]
O=C(c1ccccc1-c1ccccc1F)N(Cc1ccccc1)Cc1ccccc1 [compound 87, N,N-dibenzyl-2′-fluoro-1,1′-biphenyl-2-carboxamide]		< 1000
COc1ccc2ccccc2c1C(=O)N(Cc1ccc2c(c1)OCO2)C1Cc2ccccc2C1 [compound 228, 2-Methoxy-naphthalene-1-carboxylic acidbenzo[1,3]dioxol-5-ylmethyl-indan-2-yl-amide]	< 1000	
O=C(c1cc(Cl)ccc1-c1ccccc1)N(Cc1ccc2c(c1)OCO2)C1Cc2ccccc2C1 [compound 139, N-(1,3-benzodioxol-5-ylmethyl)-4-chloro-N-(indan-2-yl)-1,1′-biphenyl-2-carboxamide]		< 1000
O=C(c1ccccc1-c1ccccc1)N(Cc1ccccc1)Cc1ccc(OC(F)F)cc1 [compound 151, N-benzyl-N-[4-(difluoromethoxy)benzyl]-1,1′-biphenyl-2-carboxamide]		< 1000
Cc1cccc(CN(C(=O)c2cc(Cl)ccc2-c2ccccc2)C2Cc3ccccc3C2)c1 [compound 132, 4-chloro-N-(indan-2-yl)-N-(3-methylbenzyl)-1,1′-biphenyl-2-carboxamide]		< 1000
O=C(c1c(O)ccc2ccccc12)N(Cc1ccccc1F)C1Cc2ccccc2C1 [compound 237, 2-Hydroxy-naphthalene-1-carboxylic acid (2-fluoro-benzyl)-indan-2-yl-amide]	< 1000	
COc1ccc(CN(C(=O)c2ccccc2-c2ccsc2)C2Cc3ccccc3C2)cc1 [compound 83, N-(indan-2-yl)-N-(4-methoxybenzyl)-2-thien-3-ylbenzamide]		< 1000
COc1cccc(CN(C(=O)c2c(OC)cccc2-c2ccccc2)C2Cc3ccccc3C2)c1 [compound 101, N-(indan-2-yl)-3-methoxy-N-(3-methoxybenzyl)-1,1′-biphenyl-2-carboxamide]		< 1000
O=C(c1cc(Cl)ccc1-c1ccccc1)N(Cc1ccccc1)C1Cc2ccccc2C1 [compound 117, N-benzyl-4-chloro-N-(indan-2-yl)-1,1′-biphenyl-2-carboxamide]		< 1000
Cc1ccccc1CN(C(=O)c1c(C)cccc1-c1ccccc1)C1Cc2ccccc2C1 [compound 120, N-(indan-2-yl)-3-methyl-N-(2-methylbenzyl)-1,1′-biphenyl-2-carboxamide]		< 1000
COc1cccc(CN(CCc2ccccc2)C(=O)c2cc(Cl)ccc2-c2ccccc2)c1 [compound 145, 4-chloro-N-(3-methoxybenzyl)-N-(2-phenylethyl)-1,1′-biphenyl-2-carboxamide]		< 1000
CC(=O)Nc1cccc(-c2ccccc2C(=O)N(Cc2ccccc2)Cc2ccccc2)c1 [compound 35, 3′-(acetylamino)-N,N-dibenzyl-1,1′-biphenyl-2-carboxamide]		< 1000
O=C(c1ccccc1-c1cc(Cl)cc(Cl)c1)N(Cc1ccccc1)Cc1ccccc1 [compound 56, N,N-dibenzyl-3′,5′-dichloro-1,1′-biphenyl-2-carboxamide]		< 1000
O=C(c1ccccc1-c1ccccc1)N(Cc1ccc(F)c(F)c1)C1Cc2ccccc2C1 [compound 80, N-(3,4-difluorobenzyl)-N-(indan-2-yl)-1,1′-biphenyl-2-carboxamide]		< 1000
Cc1ccc(-c2ccccc2C(=O)N(Cc2cccc(C)c2)C2Cc3ccccc3C2)cc1 [compound 97, N-(indan-2-yl)-4′-methyl-N-(3-methylbenzyl)-1,1′-biphenyl-2-carboxamide]		< 1000
Cc1ccc(-c2ccccc2C(=O)N(Cc2ccccc2)Cc2ccccc2)cc1C [compound 40, N,N-dibenzyl-3′,4′-dimethyl-1,1′-biphenyl-2-carboxamide]		< 1000
Cc1cccc(CN(C(=O)c2c(C)ccc3ccccc23)C2Cc3ccccc3C2)c1 [compound 230, 2-Methyl-naphthalene-1-carboxylic acid (3-methyl-benzyl)-indan-2-yl-amide]	< 1000	

Second part, the molecule after the results:

Ki (Table III) [nM]	Ki (Table I) [nM]	Structure (SMILES)
< 1000		O=C(c1c(-c2ccccc2)ccc2ccccc12)N(Cc1ccccc1F)C1Cc2ccccc2C1 [compound 239, 2-Phenyl-naphthalene-1-carboxylic acid (2-fluoro-benzyl)-indan-2-yl-amide]
	< 1000	O=C(c1ccccc1-c1ccccc1F)N(Cc1ccc(F)cc1)C1Cc2ccccc2C1 [compound 93, N-(indan-2-yl)-2′-fluoro-N-(4-fluorobenzyl)-1,1′-biphenyl-2-carboxamide]
	< 1000	O=C(c1cc(Cl)ccc1-c1ccccc1)N(Cc1ccccc1F)C1Cc2ccccc2C1 [compound 134, 4-chloro-N-(indan-2-yl)-N-(2-fluorobenzyl)-1,1′-biphenyl-2-carboxamide]
	< 1000	COc1cccc(-c2ccccc2C(=O)N(Cc2ccc(F)cc2)C2Cc3ccccc3C2)c1 [compound 92, N-(indan-2-yl)-N-(4-fluorobenzyl)-3′-methoxy-1,1′-biphenyl-2-carboxamide]
	< 1000	O=C(c1ccccc1-c1cccc(Cl)c1)N(Cc1ccccc1)Cc1ccccc1 [compound 49, N,N-dibenzyl-3′-chloro-1,1′-biphenyl-2-carboxamide]
	< 1000	COc1ccc(-c2ccccc2)c(C(=O)N(Cc2cccc(F)c2)C2Cc3ccccc3C2)c1 [compound 109, N-(indan-2-yl)-N-(3-fluorobenzyl)-4-methoxy-1,1′-biphenyl-2-carboxamide]
	< 1000	Cc1ccc(-c2ccccc2C(=O)N(Cc2ccccc2)Cc2ccc(OC(F)F)cc2)s1 [compound 148, N-benzyl-N-[4-(difluoromethoxy)benzyl]-2-(5-methylthien-2-yl)benzamide]
	< 1000	Cc1cccc(CN(C(=O)c2ccccc2-c2ccccc2)C2Cc3ccccc3C2)c1 [compound 74, N-(indan-2-yl)-N-(3-methylbenzyl)-1,1′-biphenyl-2-carboxamide]
	< 1000	O=C(c1cc(Cl)ccc1-c1ccccc1)N(Cc1ccccc1)Cc1cccc2ccccc12 [compound 146, N-benzyl-4-chloro-N-(1-naphthylmethyl)-1,1′-biphenyl-2-carboxamide]
	< 1000	COc1ccc(-c2ccccc2)c(C(=O)N(Cc2cccc(C)c2)C2Cc3ccccc3C2)c1 [compound 106, N-(indan-2-yl)-4-methoxy-N-(3-methylbenzyl)-1,1′-biphenyl-2-carboxamide]
	< 1000	COc1cccc(CN(C(=O)c2cc(OC)ccc2-c2ccc(C)s2)C2Cc3ccccc3C2)c1 [compound 102, N-(indan-2-yl)-5-methoxy-N-(3-methoxybenzyl)-2-(5-methylthien-2-yl)benzamide]
	< 1000	COc1ccc(CN(C(=O)c2cc(Cl)ccc2-c2ccccc2)C2Cc3ccccc3C2)cc1 [compound 138, 4-chloro-N-(indan-2-yl)-N-(4-methoxybenzyl)-1,1′-biphenyl-2-carboxamide]
	< 1000	Cc1ccc(CN(C(=O)c2c(C)cccc2-c2ccccc2)C2Cc3ccccc3C2)cc1 [compound 122, N-(indan-2-yl)-3-methyl-N-(4-methylbenzyl)-1,1′-biphenyl-2-carboxamide]
	< 1000	COc1ccc(-c2ccccc2)c(C(=O)N(Cc2ccccc2F)C2Cc3ccccc3C2)c1 [compound 108, N-(indan-2-yl)-N-(2-fluorobenzyl)-4-methoxy-1,1′-biphenyl-2-carboxamide]
	< 1000	COc1ccc(-c2ccccc2C(=O)N(Cc2ccccc2)Cc2ccccc2)cc1OC [compound 46, N,N-dibenzyl-3′,4 ′-dimethoxy-1,1′-biphenyl-2-carboxamide]
